These results are taken from patent publication US20240327372A1, “PREPARATION OF PHENE[…] […] STEREOISOMERS THEREOF AND PRECURSORS THEREOF” (priority 2022, published 2024).

Data set [1] addresses DAT (Rattus norvegicus (Rat), UniProt P23977). Put plainly: DA release study. The data set is classed as biochemical.
The subject of data set [2] is NET. As to the kind of experiment: NE release study. Format: biochemical.
The target of data set [3] is hNav1.5 (Homo sapiens (Human), UniProt Q14524). As to the kind of experiment: hNav1.5 Sodium Channel Assay (peak), Qube APC. As to conditions: Nav1.5, Antagonist mode, test compound. Format: cell-based. Here is the method: (§1) Where presented, IC50 values were determined by a non-linear, least squares regression analysis.
(§2) Recombinant HEK-293 cells stably transfected with human Nav1.5 cDNA, recombinant HEK293 cell line expressing the human Cav1.2 (L-type voltage gated calcium channel, hCav1.2 α1C/β2a/α2δ1, and recombinant CHO-K1 cells stably transfected with human hERG cDNA were used separately in each of these assays.
hNav1.5 Sodium Channel Assay—Qube APC Onset and steady state block of peak Nav1.5 current is measured using a pulse pattern, repeated every 5 sec, consisting of a hyperpolarizing pulse to −120 mV for a 200 ms duration, depolarization to −15 mV amplitude for a 40 ms duration, followed by step to 40 mV for 200 ms and finally a 100 ms ramp (1.2 V/s) to a holding potential of −80 mV. Peak current is measured during the step to −15 mV.

Data set [4] addresses hCav1.2 (Homo sapiens (Human), UniProt Q13936). As to the kind of experiment: hCav1.2 (L-type) Calcium Channel Assay, Qube APC. Format: cell-based. Conditions: Cav1.2, Antagonist mode, test compound. Here is the method:
as §1, §2
hCav1.2 (L-type) Calcium Channel Assay—Qube APC After whole cell configuration is achieved, the cells are held at −90 mV. Cav1.2 currents are evoked by a 50 ms pulse to −100 mV followed by a 200 ms pulse to +20 mV before returning to the holding potential of −90 mV. This paradigm is delivered three times every 60 s to monitor the current amplitude.

Data set [5] addresses hNav1.5 Late Current (Homo sapiens (Human), UniProt Q14524). As to the kind of experiment: hNav1.5 Late Current Sodium Channel Assay, Qube APC. Format: cell-based. Conditions: Nav1.5 Late Current, Antagonist mode, test compound. Here is the method:
(§3) Electrophysiological assays were conducted to profile three compounds ((R)-methylone, (S)-methylone, or racemic methylone) for activities on the ion channel targets specified below using the Qube electrophysiological platform. Where presented, IC50 values were determined by a non-linear, least squares regression analysis. Reference standards were run as an integral part of each assay to ensure the validity of the results obtained.
(§4) Ion Channels tested were Eurofins Panel Part Number: CPROFullQB2DR Voltage-Gated Sodium: HEK-Nav1.5 (Peak), HEK-Nav1.5 (Late, Antagonist) Voltage-Gated Potassium: HEK-Kv4.3/KChIP2, CHO-hERG, CHO-KCNQ1/minK Voltage-Gated Calcium: HEK-Cav1.2 Inward-Rectifying Voltage-Gated Potassium: HEK-Kir2.1.
hNav1.5 Late Current Sodium Channel Assay—Qube APC Onset and steady state block of Late Nav1.5 current is measured using a pulse pattern, repeated every 5 sec, consisting of a hyperpolarizing pulse to −120 mV for a 200 ms duration, depolarization to −15 mV amplitude for a 40 ms duration, followed by step to 40 mV for 200 ms and finally a 100 ms ramp (1.2 V/s) to a holding potential of −80 mV. Late current is measured as charge current elicited during the ramp with 50 nM ATXII.

For data set [6], the target named is hERG (Homo sapiens (Human), UniProt Q12809). Put plainly: hERG Potassium Channel Assay, Qube APC. The data set is classed as cell-based. As to conditions: Antagonist mode, test compound. Here is the method:
as §1, §2
hERG Potassium Channel Assay—Qube APC After whole cell configuration is achieved, the cells are held at −80 mV. Cells are held at this voltage for 50 ms to measure the leak current, which is subtracted from the tail current on-line. The cells are depolarized to +40 mV for 500 ms and then to −80 mV over a 100 ms ramp to elicit the hERG tail current. This paradigm is delivered once every 8 s to monitor the current amplitude.
On the technique in general: Block of hERG is tested as a sign of cardiac risk.

For data set [7], the target named is hKir2.1 (Homo sapiens (Human), UniProt P63252). Format: cell-based. Conditions: Kir2.1, Antagonist mode, test compound. How it is done: as §3, §4
hKir2.1 Potassium Channel Assay—Qube APC After whole cell configuration is achieved, the cells are held at −30 mV. Kir2.1 currents are evoked by a single 500 ms pulse to −120 mV before returning to the holding potential of −30 mV. This paradigm is delivered once every 20 s to monitor the current amplitude.

In data set [8] the test system is cardiac ion channels. Put plainly: In vitro cardiovascular safety screening test (ion channel panel, overall). Format: cell-based, human. Conditions: whole panel. How it is done:
An in vitro cardiovascular safety screening test was run to investigate the effects of racemic methylone and two methylone stereoisomers ((R)-methylone and (S)-methylone) on selected ion channels critically linked to cardiovascular function and activity.
as §3, §4

The subject of data set [9] is rat forced swim test (FST). As to the kind of experiment: Rat forced swim test (FST). Conditions: single dose 10 mg/kg IP, 30 min before testing. The data set is classed as in vivo. How it is done:
All FST studies are performed and scored by an experimenter blind to treatment group and according to standard protocols. Briefly, rats are placed in a circular plexiglass container filled with water. Water temperature is maintained at 22-25° C. and changed for every animal. Day 1 (Training) consists of a 15 min acclimation trial, and Day 2 (Testing, 24 h later) consists of the 5 min test. A time sampling procedure is employed where animals are observed every 5 seconds for the duration of the test session (60 counts or 5 minutes) and scored for immobility (defined as the failure to struggle), swimming (defined as a circular movement around the tank), or climbing (defined as an upwards escape behavior). Data are expressed as the percent of the testing session (e.g., the number of immobility counts divided by 60). A p-value less than 0.05 indicates statistical significance after typical statistical analyses (e.g., unpaired t-test or ANOVA).
To determine that the prodrug and/or enantiomer has an antidepressant-like effect and to compare it to methylone, rats are treated with each compound 30 min prior to testing. Additional tests are run 24, 72, 168 hours post-dose or longer.
Racemic methylone (10 mg/kg, IP) has a maximal antidepressant-like effect in the rat forced swim test (FST), reducing immobility by nearly 100% compared to vehicle treated controls. To determine whether one enantiomer of methylone could mimic the robust antidepressant-like effect of racemic methylone, rats were treated with a single dose of racemic methylone, (R)-methylone, (S)-methylone (all 10 mg/kg, IP) or vehicle 30 min before testing in the FST. […] Therefore, all of the activity of methylone appears to be driven by the activity of one enantiomer ((S)-methylone).

hERG, sequence (Q12809 whole entry): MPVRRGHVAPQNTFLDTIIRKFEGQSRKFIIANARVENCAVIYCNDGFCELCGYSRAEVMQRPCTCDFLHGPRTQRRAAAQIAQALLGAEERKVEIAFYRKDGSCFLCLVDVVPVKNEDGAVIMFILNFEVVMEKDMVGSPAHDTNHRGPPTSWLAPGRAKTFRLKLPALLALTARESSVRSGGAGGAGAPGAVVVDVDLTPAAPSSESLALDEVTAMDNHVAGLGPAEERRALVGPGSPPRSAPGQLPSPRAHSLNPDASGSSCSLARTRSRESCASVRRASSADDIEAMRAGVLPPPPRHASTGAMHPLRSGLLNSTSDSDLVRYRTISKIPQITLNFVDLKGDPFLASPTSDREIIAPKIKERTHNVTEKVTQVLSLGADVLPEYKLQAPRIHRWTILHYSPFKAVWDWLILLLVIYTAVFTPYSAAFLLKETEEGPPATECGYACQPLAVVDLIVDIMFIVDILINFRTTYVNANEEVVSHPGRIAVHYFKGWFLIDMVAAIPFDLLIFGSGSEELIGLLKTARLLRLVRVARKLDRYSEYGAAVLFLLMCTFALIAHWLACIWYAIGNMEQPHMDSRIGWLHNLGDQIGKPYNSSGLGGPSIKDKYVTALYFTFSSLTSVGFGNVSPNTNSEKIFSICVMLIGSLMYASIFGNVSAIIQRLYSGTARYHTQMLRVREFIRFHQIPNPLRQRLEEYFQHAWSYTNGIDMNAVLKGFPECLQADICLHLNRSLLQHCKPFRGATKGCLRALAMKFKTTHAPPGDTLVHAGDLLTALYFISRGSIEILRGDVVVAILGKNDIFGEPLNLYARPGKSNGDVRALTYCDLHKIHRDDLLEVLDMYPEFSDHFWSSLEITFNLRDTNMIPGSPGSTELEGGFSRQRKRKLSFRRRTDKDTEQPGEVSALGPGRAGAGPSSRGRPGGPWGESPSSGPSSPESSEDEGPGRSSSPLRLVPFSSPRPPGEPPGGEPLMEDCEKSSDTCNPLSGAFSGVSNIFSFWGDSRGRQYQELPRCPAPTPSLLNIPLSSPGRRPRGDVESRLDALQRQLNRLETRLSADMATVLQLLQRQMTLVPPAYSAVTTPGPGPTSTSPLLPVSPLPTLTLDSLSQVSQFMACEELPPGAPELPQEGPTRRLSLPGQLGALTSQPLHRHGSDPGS
hKir2.1, sequence (P63252 whole entry): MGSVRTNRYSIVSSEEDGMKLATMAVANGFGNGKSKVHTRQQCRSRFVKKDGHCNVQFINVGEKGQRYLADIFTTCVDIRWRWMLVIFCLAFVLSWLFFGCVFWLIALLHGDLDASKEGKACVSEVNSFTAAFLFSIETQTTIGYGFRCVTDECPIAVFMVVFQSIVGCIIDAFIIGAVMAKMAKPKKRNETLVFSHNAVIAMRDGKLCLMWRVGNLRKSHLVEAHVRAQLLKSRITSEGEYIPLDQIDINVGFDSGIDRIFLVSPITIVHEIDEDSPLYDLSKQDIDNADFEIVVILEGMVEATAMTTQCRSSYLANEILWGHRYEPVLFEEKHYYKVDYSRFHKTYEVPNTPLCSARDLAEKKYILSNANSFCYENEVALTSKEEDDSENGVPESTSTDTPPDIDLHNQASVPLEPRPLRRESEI

The term EC50 denotes the concentration that produces a half-maximal response. On to `CN[C@@H](C)C(=O)c1ccc2c(c1)OCO2` [(S)-methylone], for which the concentration giving a half-maximal response (EC50) is 3280 nM in data set [1] and 760 nM in data set [2]. Further, the “Estimated IC50” value in data set [3], in data set [4], in data set [5], in data set [6] and in data set [7] was “N/C (N/C indicates observed mean inhibition was <25%)” throughout. Besides, the “Effect on the cardiac ion channels tested” value in data set [8] is “do not directly inhibit the activity of cardiac channels”. Besides, the “Antidepressant-like effect in the FST” value in data set [9] was “mimicked the rapid and robust antidepressant-like effect of racemic methylone”.

On to `CN[C@H](C)C(=O)c1ccc2c(c1)OCO2` [(R)-methylone], for which the EC50 in data set [1] worked out at 4770 nM; in [2], 191 nM. Moreover, the “Estimated IC50” value in [3], in [4], in data set [5], in data set [6] and in data set [7] was “N/C (N/C indicates observed mean inhibition was <25%)” in each case. Moreover, the “Effect on the cardiac ion channels tested” value in [8] was “do not directly inhibit the activity of cardiac channels”. The “Antidepressant-like effect in the FST” value in data set [9] is listed as “no effect”.
